Values quoted from earlier work as cited in PubChem BioAssay AID1259409 (Chemical Carcinogenesis Research Information System (CCRIS), 2018).

Tested on: rodent chemically induced tumor inhibition, incidence and multiplicity
Assay: CCRIS tumor inhibitor studies

For `CC1=C(/C=C/C(C)=C/C=C/C(C)=C/C=C/C=C(C)/C=C/C=C(C)/C=C/C2=C(C)CCCC2(C)C)C(C)(C)CCC1`, the “tumour outcome (control, treated, inhibition, significance)” value (Carcinogen: 1,2-DIMETHYLHYDRAZINE, 540-73-8, Dose [Inhibitor]: 0, 0.005% IN DIET FOR 14 WK BEGINNING 3 D PRIOR TO CARCINOGEN TREATMENT (STUDY DURATION: 26 WK), Route [Inhibitor]: ORAL, Species: RAT, Strain/Sex: SPRAGUE-DAWLEY/MALE, Target Tissue: Type of Lesion: INTESTINE: CARCINOMA, Dose [Carcinogen]: 20 MG/KG BW 1/WK FOR 12 WK, Promoter: NONE USED) is given as 23/28 (82%), 11/20 (55%), 33%, p<0.05, the “tumour outcome (control, treated, inhibition, significance)” value (Carcinogen: 4-(METHYLNITROSAMINO)-1-(3-PYRIDYL)-1-BUTANONE [64091-50-5], Dose [Inhibitor]: 16 MG/KG SC 2X/WK FOR 16 WK BEGINNING 1 WK PRIOR TO FIRST CARCINOGEN DOSE (STUDY DURATION: 16 WK), Route [Inhibitor]: SUBCUTANEOUS, Species: MOUSE, Strain/Sex: A/J/FEMALE, Target Tissue: Type of Lesion: LUNG: ADENOMA OR ADENOCARCINOMA, Dose [Carcinogen]: 10 UMOL ONCE 1 WK POST FIRST INHIBITOR DOSE (STUDY DURATION: 16 WK), Promoter: NONE) is given as 100%, 100%, 0%, not significant and the “tumour outcome (control, treated, inhibition, significance)” value (Carcinogen: 4-(METHYLNITROSAMINO)-1-(3-PYRIDYL)-1-BUTANONE [64091-50-5], Dose [Inhibitor]: 32 MG/KG SC 2X/WK FOR 17 WK BEGINNING 1 WK PRIOR TO FIRST CARCINOGEN DOSE (STUDY DURATION: 17 WK), Route [Inhibitor]: SUBCUTANEOUS, Species: MOUSE, Strain/Sex: A/J/FEMALE, Target Tissue: Type of Lesion: LUNG: ADENOMA, Dose [Carcinogen]: 10 UMOL ONCE 1 WK POST FIRST INHIBITOR DOSE (STUDY DURATION: 17 WK), Promoter: NONE) is given as 100%, 100%, 0%, not significant. For the same compound, the “tumour outcome (control, treated, inhibition, significance)” value (Carcinogen: 4-(METHYLNITROSAMINO)-1-(3-PYRIDYL)-1-BUTANONE [64091-50-5], Dose [Inhibitor]: 32 MG/KG SC 2X/WK FOR 53 WK BEGINNING 1 WK PRIOR TO FIRST CARCINOGEN DOSE (STUDY DURATION: 53 WK), Route [Inhibitor]: SUBCUTANEOUS, Species: MOUSE, Strain/Sex: A/J/FEMALE, Target Tissue: Type of Lesion: LUNG: ADENOMA OR ADENOCARCINOMA, Dose [Carcinogen]: 10 UMOL ONCE 1 WK POST FIRST INHIBITOR DOSE (STUDY DURATION: 53 WK), Promoter: NONE) was 100%, 100%, 0%, not significant, the “tumour outcome (control, treated, inhibition, significance)” value (Carcinogen: 4-NITROQUINOLINE-1-OXIDE, 56-57-5, Dose [Inhibitor]: 0, 0.05% IN DRINKING WATER AD LIBITUM (STUDY DURATION: 30 WK), Route [Inhibitor]: ORAL, Species: MOUSE, Strain/Sex: DDY/MALE, Target Tissue: Type of Lesion: LUNG: TUMOR, Dose [Carcinogen]: 10 MG/KG BW IN OLIVE OIL/CHOLESTEROL (20:1) ONCE, Promoter: GLYCEROL, 56-81-5) was 94%, 93%, 1%, not significant and the “tumour outcome (control, treated, inhibition, significance)” value (Carcinogen: 4-NITROQUINOLINE-1-OXIDE, 56-57-5, Dose [Inhibitor]: 0, 0.05% IN DRINKING WATER BEGINNING 5 WK POST CARCINOGEN TREATMENT AND CONTINUING FOR 25 WK (STUDY DURATION: 30 WK), Route [Inhibitor]: ORAL, Species: MOUSE, Strain/Sex: DDY/MALE, Target Tissue: Type of Lesion: LUNG: TUMORS, Dose [Carcinogen]: 10 MG/KG BW IN OLIVE OIL AND CHOLESTEROL (20:1) ONCE, Promoter: NONE USED) was 94%, 93%, 1%, not significant. The “tumour outcome (control, treated, inhibition, significance)” value (Carcinogen: 4-NITROQUINOLINE-1-OXIDE, 56-57-5, Dose [Inhibitor]: 0, 500 PPM IN DIET FOR 10 WK BEGINNING 1 WK PRIOR TO CARCINOGEN TREATMENT (STUDY DURATION: 32 WK), Route [Inhibitor]: ORAL, Species: RAT, Strain/Sex: F344/MALE, Target Tissue: Type of Lesion: TONGUE: CARCINOMA, Dose [Carcinogen]: 20 PPM IN DRINKING WATER FOR 8 WK, Promoter: NONE USED) was 13/24 (54%), 3/17 (18%), 67%, p<0.05, the “tumour outcome (control, treated, inhibition, significance)” value (Carcinogen: 4-NITROQUINOLINE-1-OXIDE, 56-57-5, Dose [Inhibitor]: 0, 500 PPM IN DIET FOR 10 WK BEGINNING 1 WK PRIOR TO CARCINOGEN TREATMENT (STUDY DURATION: 32 WK), Route [Inhibitor]: ORAL, Species: RAT, Strain/Sex: F344/MALE, Target Tissue: Type of Lesion: TONGUE: PAPILLOMA, Dose [Carcinogen]: 20 PPM IN DRINKING WATER FOR 8 WK, Promoter: NONE USED) was 4/24 (17%), 2/17 (12%), 29%, not significant and the “tumour outcome (control, treated, inhibition, significance)” value (Carcinogen: 4-NITROQUINOLINE-1-OXIDE, 56-57-5, Dose [Inhibitor]: 0, 500 PPM IN DIET FOR 22 WK BEGINNING 1 WK POST CARCINOGEN TREATMENT (STUDY DURATION: 32 WK), Route [Inhibitor]: ORAL, Species: RAT, Strain/Sex: F344/MALE, Target Tissue: Type of Lesion: TONGUE: CARCINOMA, Dose [Carcinogen]: 20 PPM IN DRINKING WATER FOR 8 WK, Promoter: NONE USED) was 13/24 (54%), 4/17 (24%), 56%, p<0.05. The “tumour outcome (control, treated, inhibition, significance)” value (Carcinogen: 4-NITROQUINOLINE-1-OXIDE, 56-57-5, Dose [Inhibitor]: 0, 500 PPM IN DIET FOR 22 WK BEGINNING 1 WK POST CARCINOGEN TREATMENT (STUDY DURATION: 32 WK), Route [Inhibitor]: ORAL, Species: RAT, Strain/Sex: F344/MALE, Target Tissue: Type of Lesion: TONGUE: PAPILLOMA, Dose [Carcinogen]: 20 PPM IN DRINKING WATER FOR 8 WK, Promoter: NONE USED) was 4/24 (17%), 2/17 (12%), 29%, not significant, the “tumour outcome (control, treated, inhibition, significance)” value (Carcinogen: 7,12-DIMETHYLBENZ[A]ANTHRACENE, 57-97-6, Dose [Inhibitor]: 0, 0.05% IN DRINKING WATER AD LIBITUM FOR 30 WK BEGINNING 1 WK POST CARCINOGEN DOSE (STUDY DURATION: 31 WK), Route [Inhibitor]: ORAL, Species: MOUSE, Strain/Sex: ICR/FEMALE, Target Tissue: Type of Lesion: SKIN: TUMOR, Dose [Carcinogen]: 100 UG ONCE, Promoter: 12-O-TETRADECANOYLPHORBOL-13-ACETATE, 16561-29-8) was 13/16 (81%), 8/16 (50%), 38%, not significant and the “tumour outcome (control, treated, inhibition, significance)” value (Carcinogen: 7,12-DIMETHYLBENZ[A]ANTHRACENE, 57-97-6, Dose [Inhibitor]: 0, 200 NMOL IN 200 µL ACETONE 2/WK BEGINNING 1 WK POST CARCINOGEN DOSE APPLIED SIMULTANEOUSLY WITH PROMOTER FOR 20 WK (S, Route [Inhibitor]: DERMAL, Species: MOUSE, Strain/Sex: ICR/?, Target Tissue: Type of Lesion: SKIN: PAPILLOMA, Dose [Carcinogen]: 100 UG ONCE, Promoter: 12-O-TETRADECANOYLPHORBOL-13-ACETATE, 16561-29-8) was 69%, 31%, 55%, not calculated. For the same compound, the “tumour outcome (control, treated, inhibition, significance)” value (Carcinogen: 7,12-DIMETHYLBENZ[A]ANTHRACENE, 57-97-6, Dose [Inhibitor]: 0, 200 NMOL IN 200 µL ACETONE 2/WK FOR 40 WK APPLIED SIMULTANEOUSLY WITH PROMOTER BEGINNING 1 WK POST CARCINOGEN DOSE (S, Route [Inhibitor]: DERMAL, Species: MOUSE, Strain/Sex: ICR/FEMALE, Target Tissue: Type of Lesion: SKIN: TUMOR, Dose [Carcinogen]: 100 UG ONCE, Promoter: 12-O-TETRADECANOYLPHORBOL-13-ACETATE, 16561-29-8) was 10/15 (67%), 8/15 (53%), 21%, not significant, the “tumour outcome (control, treated, inhibition, significance)” value (Carcinogen: 7,12-DIMETHYLBENZ[A]ANTHRACENE, 57-97-6, Dose [Inhibitor]: 0, 200 NMOL PALM CAROTENE FOR 22 WK BEGINNING 1 WK POST CARCINOGEN DOSE (STUDY DURATION: 40 WK), Route [Inhibitor]: DERMAL, Species: MOUSE, Strain/Sex: ICR/FEMALE, Target Tissue: Type of Lesion: SKIN: TUMOR, Dose [Carcinogen]: 100 UG ONCE, Promoter: GLYCOCHOLIC ACID, 475-31-0, MEZEREIN, 34807-41-5, Promoter: GLYCOCHOLIC ACID, 475-31-0, MEZEREIN, 34807-41-5) was 26%, 0%, 100%, not calculated and the “tumour outcome (control, treated, inhibition, significance)” value (Carcinogen: 7,12-DIMETHYLBENZ[A]ANTHRACENE, 57-97-6, Dose [Inhibitor]: 0, 250 MG SUSPENDED IN LIQUID PARAFFIN APPLIED TO EACH CHEEK POUCH 2/WK BEGINNING 15 D POST LAST CARCINOGEN DOSE AND CON, Route [Inhibitor]: DERMAL, Species: HAMSTER, Strain/Sex: SYRIAN/MALE, Target Tissue: Type of Lesion: CHEEK POUCH: TUMOR, Dose [Carcinogen]: 0.125 MG (0.25% LIQUID PARAFFIN SOLUTION) APPLIED TO EACH CHEEK POUCH FOR 1 MO, Promoter: NONE USED) was 10/15 (67%), 0/20 (0%), 100%, not calculated. The “tumour outcome (control, treated, inhibition, significance)” value (Carcinogen: 7,12-DIMETHYLBENZ[A]ANTHRACENE, 57-97-6, Dose [Inhibitor]: 0, 250 MG SUSPENDED IN LIQUID PARAFFIN APPLIED TO EACH CHEEK POUCH 2/WK BEGINNING 15 D POST LAST CARCINOGEN DOSE AND CON, Route [Inhibitor]: DERMAL, Species: HAMSTER, Strain/Sex: SYRIAN/MALE, Target Tissue: Type of Lesion: STOMACH: TUMOR, Dose [Carcinogen]: 0.125 MG (0.25% LIQUID PARAFFIN IN SOLUTION) APPLIED TO EACH CHEEK POUCH 2/WK FOR 1 MO, Promoter: NONE USED) was 15/15 (100%), 0/20 (0%), 100%, not calculated, the “tumour outcome (control, treated, inhibition, significance)” value (Carcinogen: 7,12-DIMETHYLBENZ[A]ANTHRACENE, 57-97-6, Dose [Inhibitor]: 0, 290 IU/KG IN 100 µL PEANUT OIL 5 D/WK BEGINNING 1 WK POST CARCINOGEN DOSE AND CONTINUING FOR DURATION OF STUDY (STUDY, Route [Inhibitor]: GAVAGE, Species: MOUSE, Strain/Sex: HRA/SKH/FEMALE, Target Tissue: Type of Lesion: SKIN: CARCINOMA, Dose [Carcinogen]: 10 NMOL IN 50 µL ACETONE ONCE) was 7/25 (28%), 7/38 (18%), 36%, not calculated and the outcome (Carcinogen: 7,12-DIMETHYLBENZ[A]ANTHRACENE, 57-97-6, Dose [Inhibitor]: 0, 290 IU/KG IN 100 µL PEANUT OIL 5 D/WK BEGINNING 1 WK POST CARCINOGEN DOSE AND CONTINUING FOR DURATION OF STUDY (STUDY, Route [Inhibitor]: GAVAGE, Species: MOUSE, Strain/Sex: HRA/SKH/FEMALE, Target Tissue: Type of Lesion: SKIN: PAPILLOMA, Dose [Carcinogen]: 10 NMOL IN 50 µL ACETONE ONCE) was 97%, 77%, 21%, not calculated at 20 wk; 68%, 50%, 27%, not calculated at 40 wk.
